Measured values as given in article PMC12021657, “Rapid traversal of vast chemical space using machine learning-guided docking screens” (Nature Computational Science, 2025).

Assays:
[1] = biological target: T1, Human A2AR (Homo sapiens, UniProt P29274); assay: Human A2AR competition radioligand binding ([3H]-ZM241385, HeLa-A2A membranes); conditions: 20 µM compound, mean ± SEM of two technical replicates
T1 construct: expressed in transfected cells; host or cells: HeLa-A2A cell line (membranes prepared in house, lot A003/14-04-2019)
Method: (§1) Screening compounds (Supplementary Tables 10 and 12) were purchased from Enamine (compound purity >90%, which was confirmed by liquid chromatography−mass spectrometry and ^1H NMR spectroscopy for identified ligands; Supplementary Figs. 19–30). Human D2R competition binding experiments were carried out in polypropylene 96-well plates. Each well contained 20 µg of membranes from a CHO-D2R #S20 cell line (protein concentration of 4,322 µg ml^−1), 1.5 nM [^3H]-spiperone (54.3 Ci mmol^−1, 1 mCi ml^−1, PerkinElmer NET1187250UC) and the compound studied. Non-specific binding was determined in the presence of 10 µM sulpiride (Sigma Aldrich S8010). The reaction mixture (250 µl per well) was incubated at 25 °C for 120 min, after which 200 µl was transferred to a GF/C 96-well plate (Millipore) pretreated with 0.5% PEI and treated with binding buffer (50 mM Tris-HCl, 1 mM EDTA, 5 mM MgCl2, 5 mM KCl, 120 mM NaCl, pH 7.4). The reaction mixture was filtered and washed 4 times with 250 µl wash buffer (50 mM Tris-HCl, 0.9% NaCl, pH 7.4) before the addition of 30 μl Universol. The final measurement was performed in a microplate beta scintillation counter (Microbeta Trilux, PerkinElmer). Human A2AR competition binding experiments were carried out in a multiscreen GF/C 96-well plate (Millipore) pretreated with binding buffer (Tris-HCl 50 mM, EDTA 1 mM, MgCl2 10 mM, 2 U ml^−1 adenosine deaminase, pH 7.4). Each well was incubated with 5 μg of membranes from the HeLa-A2A cell line and prepared in our laboratory (lot A003/14-04-2019, protein concentration 2,058 μg ml^−1), 1 nM [^3H]-ZM241385 (50 Ci mmol^−1, 1 mCi ml^−1, ARC-ITISA 0884), and the compounds studied and standards. Non-specific binding was determined in the presence of NECA 50 μM (Sigma E2387). The reaction mixture (total volume of 200 μl per well) was incubated at 25 °C for 30 min, then filtered and washed 4 times with 250 μl wash buffer (Tris-HCl 50 mM, EDTA 1 mM, MgCl2 10 mM, pH 7.4), and measured in a microplate beta scintillation counter (Microbeta Trilux, PerkinElmer). Unless stated otherwise, three independent experiments were carried out to calculate Ki values.

[2] = biological target: T2, Human D2R (Homo sapiens, UniProt P14416); assay: Human D2R competition radioligand binding ([3H]-spiperone, CHO-D2R #S20 membranes); conditions: 10 µM compound, mean ± SEM of two technical replicates; for inhibition at 10 µM: 2 h, read-out: D2R radioligand displacement at 10 µM (%)
T2 construct: expressed in transfected cells
Method: as §1

T2 sequence (P14416 whole entry): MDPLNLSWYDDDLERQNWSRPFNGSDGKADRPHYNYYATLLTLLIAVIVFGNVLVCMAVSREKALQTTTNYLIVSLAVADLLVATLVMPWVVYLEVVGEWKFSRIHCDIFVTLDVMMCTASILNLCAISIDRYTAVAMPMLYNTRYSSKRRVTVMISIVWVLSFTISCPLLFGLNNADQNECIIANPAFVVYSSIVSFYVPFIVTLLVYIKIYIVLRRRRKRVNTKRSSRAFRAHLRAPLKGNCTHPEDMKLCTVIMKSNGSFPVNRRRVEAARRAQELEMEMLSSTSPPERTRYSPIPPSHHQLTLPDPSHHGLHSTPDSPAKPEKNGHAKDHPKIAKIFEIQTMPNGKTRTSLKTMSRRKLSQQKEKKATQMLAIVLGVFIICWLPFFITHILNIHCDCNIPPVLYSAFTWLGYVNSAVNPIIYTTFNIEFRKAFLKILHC
T1 sequence (P29274 whole entry): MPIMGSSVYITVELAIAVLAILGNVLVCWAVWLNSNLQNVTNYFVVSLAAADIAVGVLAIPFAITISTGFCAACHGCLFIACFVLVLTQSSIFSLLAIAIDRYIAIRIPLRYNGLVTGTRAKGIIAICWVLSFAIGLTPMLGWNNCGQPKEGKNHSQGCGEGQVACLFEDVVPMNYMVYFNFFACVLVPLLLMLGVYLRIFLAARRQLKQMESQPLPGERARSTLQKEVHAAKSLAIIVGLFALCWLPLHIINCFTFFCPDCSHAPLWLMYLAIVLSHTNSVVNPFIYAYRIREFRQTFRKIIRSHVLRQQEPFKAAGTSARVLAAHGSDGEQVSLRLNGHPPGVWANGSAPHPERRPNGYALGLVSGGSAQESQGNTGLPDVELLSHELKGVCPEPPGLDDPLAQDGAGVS

Row | A2AR radioligand displacement at 20 µM (%) [1] [%] | D2R radioligand displacement at 10 µM (%) [2] [%] | inhibition at 10 µM [2] [%] | SMILES
1 | – | 28 ± 1 | 28 ± 1 | OC(CN1CCC(n2ncc3ccccc32)CC1)c1cccc(Cl)n1 (stereo not drawn) [Z3651347041, c1ccc2c(c1)cnn2C3CCN(CC3)CC(c4cccc(n4)Cl)O]
2 | – | 10 ± 3 | 10 ± 3 | OC(Cc1cccc(Cl)c1)CN1CCC=C(c2ccco2)C1 (stereo not drawn) [Z2102774071, c1cc(cc(c1)Cl)CC(CN2CCC=C(C2)c3ccco3)O]
3 | – | 24 ± 1 | 24 ± 1 | Clc1ccc(C2CN=C(NCc3cc(OC4CCC4)ccn3)N2)cc1 (stereo not drawn) [Z8185092666, c1cc(ccc1C2CN=C(N2)NCc3cc(ccn3)OC4CCC4)Cl]
4 | 23±1 | – | – | NC(=NCCOc1cccc(C(F)(F)F)c1)Nc1ncccn1 [Z8854579346, c1cc(cc(c1)OCCN=C(N)Nc2ncccn2)C(F)(F)F]
5 | – | 3 ± 1 | 3 ± 1 | O[C@@H](CN1CCc2cc(Br)sc2C1)c1ccccc1F [Z8185092668, c1ccc(c(c1)[C@H](CN2CCc3cc(sc3C2)Br)O)F]
6 | 32±2 | – | – | NC(=NCc1cc2ccccc2o1)Nc1ncccn1 [Z8854579345, c1ccc2c(c1)cc(o2)CN=C(N)Nc3ncccn3]
7 | 30±2 | – | – | N[C@H]1c2ccccc2C[C@H]1C(=O)Nc1ccn(-c2ccccn2)n1 [Z8854579342, c1ccc2c(c1)C[C@H]([C@H]2N)C(=O)Nc3ccn(n3)c4ccccn4]
8 | – | 1 ± 1 | 1 ± 1 | Cc1cc(CC(O)CN2CCc3c(ncn3C3CCC3)C2)ccc1F (stereo not drawn) [Z3516919089, Cc1cc(ccc1F)CC(CN2CCc3c(ncn3C4CCC4)C2)O]
9 | 11±1 | – | – | NC(=NCCc1ccc(F)cc1)Nc1ncccn1 [Z8854579370, c1cnc(nc1)NC(=NCCc2ccc(cc2)F)N]
10 | 39±1 | – | – | COc1ccc(Cl)c(CCN=C(N)Nc2ncccn2)c1 [Z8854579336, COc1ccc(c(c1)CCN=C(N)Nc2ncccn2)Cl]
11 | – | 2 ± 3 | 2 ± 3 | CC(C)(C)c1c[nH]c(CN2CCC(Cc3nccs3)C2)n1 (stereo not drawn) [Z8185092674, CC(C)(C)c1c[nH]c(n1)CN2CCC(C2)Cc3nccs3]
12 | – | 2 ± 1 | 2 ± 1 | Fc1cccc2nc(CNCc3ccccc3-n3cccn3)sc12 [Z8185092672, c1ccc(c(c1)CNCc2nc3cccc(c3s2)F)n4cccn4]
13 | – | 17 ± 4 | 17 ± 4 | c1csc(CCN2CCC(Oc3ccc(C4CC4)cn3)C2)c1 (stereo not drawn) [Z2694200197, c1cc(sc1)CCN2CCC(C2)Oc3ccc(cn3)C4CC4]
14 | – | 6 ± 2 | 6 ± 2 | Cc1cccc(CN[C@H]2C[C@H](Oc3ccccc3)C2)c1F [Z8185092308, Cc1c(c(ccc1)CN[C@H]2C[C@@H](C2)Oc3ccccc3)F]
15 | – | 7 ± 1 | 7 ± 1 | Cn1cc(-c2ccc(CN3CC[C@@H](Oc4ccccc4)C3)s2)cn1 [Z2629646171, Cn1cc(cn1)c2ccc(s2)CN3CC[C@H](C3)Oc4ccccc4]
16 | – | 1 ± 1 | 1 ± 1 | c1cnc(CCN2CCC(c3cn[nH]c3)CC2)cn1 [Z2833584438, c1cnc(cn1)CCN2CCC(CC2)c3c[nH]nc3]
17 | – | 3 ± 1 | 3 ± 1 | Cc1ccccc1-n1cc(CNC2COc3ccccc3C2)cn1 (stereo not drawn) [Z8185092078, Cc1ccccc1n2cc(cn2)CNC3Cc4ccccc4OC3]
18 | – | 5 ± 1 | 5 ± 1 | Cc1[nH]cnc1CN1CCC(Oc2cc(F)cc(F)c2)C1 (stereo not drawn) [Z3516846214, Cc1c(nc[nH]1)CN2CCC(C2)Oc3cc(cc(c3)F)F]
19 | – | 4 ± 1 | 4 ± 1 | Clc1cccc(CCN2CC(c3ncnc4ccccc34)C2)c1 [Z3806926084, c1ccc2c(c1)c(ncn2)C3CN(C3)CCc4cccc(c4)Cl]
20 | – | 5 ± 3 | 5 ± 3 | Fc1ccc(O[C@H]2CCN(Cc3cnc4ccc(Br)cn34)C2)cc1 [Z8185092492, c1cc(ccc1O[C@H]2CCN(C2)Cc3cnc4n3cc(cc4)Br)F]
21 | – | 4 ± 1 | 4 ± 1 | Clc1cnn(CCN2CCC(OCc3ccc(Br)cc3)CC2)c1 [Z8185092665, c1cc(ccc1COC2CCN(CC2)CCn3cc(cn3)Cl)Br]
22 | – | 5 ± 3 | 5 ± 3 | FC(F)(F)c1ccnc(N2CCN(C3CCC3)CC2)c1 [Z1348398263, c1cnc(cc1C(F)(F)F)N2CCN(CC2)C3CCC3]
23 | – | 4 ± 3 | 4 ± 3 | Cc1ccc(C(O)CN2CCC3(Cc4ccccc4C3)C2)c(C)c1 (stereo not drawn) [Z8185092353, Cc1ccc(c(c1)C)C(CN2CCC3(C2)Cc4ccccc4C3)O]

Row | SMILES | A2AR radioligand displacement at 20 µM (%) [1] [%] | D2R radioligand displacement at 10 µM (%) [2] [%] | inhibition at 10 µM [2] [%]
24 | NC(CC(=O)Nc1cc2ncccn2n1)C(=O)OCc1ccccc1 (stereo not drawn) [Z8854579341, c1ccc(cc1)COC(=O)C(CC(=O)Nc2cc3ncccn3n2)N] | 2±2 | – | –
25 | c1ccc(C2CN=C(NCCc3cn4c(n3)CCCC4)N2)cc1 (stereo not drawn) [Z8185092671, c1ccc(cc1)C2CN=C(N2)NCCc3cn4c(n3)CCCC4] | – | 5 ± 2 | 5 ± 2
26 | O=C(CN1CCC1Cc1ccccc1)Nc1ncc[nH]1 (stereo not drawn) [Z6743522026, c1ccc(cc1)CC2CCN2CC(=O)Nc3[nH]ccn3] | 5±3 | – | –
27 | c1ccc(C2CC(NCc3cc4ncccc4[nH]3)C2)cc1 (stereo not drawn) [Z3532611366, c1ccc(cc1)C2CC(C2)NCc3cc4c([nH]3)cccn4] | – | 24 ± 1 | 24 ± 1
28 | c1ccc([C@H]2C[C@H](NCc3ccccc3-n3cccn3)C2)cc1 [Z1973963178, c1ccc(cc1)[C@H]2C[C@@H](C2)NCc3c(cccc3)n4nccc4] | – | 1 ± 2 | 1 ± 2
29 | Cc1ccc(C2CC(NCCn3ncc4ccccc43)C2)cc1 (stereo not drawn) [Z8185092514, Cc1ccc(cc1)C2CC(C2)NCCn3c4ccccc4cn3] | – | 23 ± 1 | 23 ± 1
30 | c1ccc(CC2CN(Cc3cc4ncccc4s3)C2)cc1 [Z8185092667, c1ccc(cc1)CC2CN(C2)Cc3cc4c(s3)cccn4] | – | 12 ± 3 | 12 ± 3
31 | Clc1nc2c(cc1CN1CC[C@@H](Oc3ccccc3)C1)COCC2 [Z3529190238, c1ccc(cc1)O[C@@H]2CCN(C2)Cc3cc4c(nc3Cl)CCOC4] | – | 1 ± 1 | 1 ± 1
32 | Fc1ccc([C@H]2C[C@H](NCc3cnn(-c4ccccc4)n3)C2)cc1 [Z2213086620, c1ccc(cc1)n2nc(cn2)CN[C@H]3C[C@@H](C3)c4ccc(cc4)F] | – | 27 ± 1 | 27 ± 1
33 | c1ccc(NC2CCN(Cc3cccc4ncnn34)C2)cc1 (stereo not drawn) [Z3310096494, c1ccc(cc1)NC2CCN(C2)Cc3cccc4n3ncn4] | – | 1 ± 2 | 1 ± 2
34 | Brc1ccn2c(CN[C@H]3C[C@H](Oc4ccccc4)C3)cnc2c1 [Z8185092056, c1ccc(cc1)O[C@H]2C[C@@H](C2)NCc3n4c(nc3)cc(cc4)Br] | – | 2 ± 2 | 2 ± 2
35 | Cc1ccc(CCN2C[C@@H]3CN(C(=O)c4cn5c(n4)CC(C)CC5)C[C@@H]3C2)cc1 (stereo partly drawn) [Z8185092530, Cc1ccc(cc1)CCN2C[C@@H]3CN(C[C@@H]3C2)C(=O)c4cn5c(n4)CC(CC5)C] | – | 1 ± 2 | 1 ± 2
